From EP4806891A1 (Kangbaida (Sichuan) Biotechnology Co., Ltd., priority 2023, dated 2025)

biological target: T1, HEK-Blue-hTLR9 cells (Homo sapiens, UniProt Q9NR96); experiment: HEK-Blue-hTLR9 cell inhibition assay; type: cell-based; details: ODN2006 1 µM, 16 h, OD 620 nm, read-out: TLR9 IC50
T1 construct: expressed in transfected cells; host or cells: HEK-Blue-hTLR9 cells (HEK293-derived reporter line)
T1 sequence (Q9NR96 26-1032): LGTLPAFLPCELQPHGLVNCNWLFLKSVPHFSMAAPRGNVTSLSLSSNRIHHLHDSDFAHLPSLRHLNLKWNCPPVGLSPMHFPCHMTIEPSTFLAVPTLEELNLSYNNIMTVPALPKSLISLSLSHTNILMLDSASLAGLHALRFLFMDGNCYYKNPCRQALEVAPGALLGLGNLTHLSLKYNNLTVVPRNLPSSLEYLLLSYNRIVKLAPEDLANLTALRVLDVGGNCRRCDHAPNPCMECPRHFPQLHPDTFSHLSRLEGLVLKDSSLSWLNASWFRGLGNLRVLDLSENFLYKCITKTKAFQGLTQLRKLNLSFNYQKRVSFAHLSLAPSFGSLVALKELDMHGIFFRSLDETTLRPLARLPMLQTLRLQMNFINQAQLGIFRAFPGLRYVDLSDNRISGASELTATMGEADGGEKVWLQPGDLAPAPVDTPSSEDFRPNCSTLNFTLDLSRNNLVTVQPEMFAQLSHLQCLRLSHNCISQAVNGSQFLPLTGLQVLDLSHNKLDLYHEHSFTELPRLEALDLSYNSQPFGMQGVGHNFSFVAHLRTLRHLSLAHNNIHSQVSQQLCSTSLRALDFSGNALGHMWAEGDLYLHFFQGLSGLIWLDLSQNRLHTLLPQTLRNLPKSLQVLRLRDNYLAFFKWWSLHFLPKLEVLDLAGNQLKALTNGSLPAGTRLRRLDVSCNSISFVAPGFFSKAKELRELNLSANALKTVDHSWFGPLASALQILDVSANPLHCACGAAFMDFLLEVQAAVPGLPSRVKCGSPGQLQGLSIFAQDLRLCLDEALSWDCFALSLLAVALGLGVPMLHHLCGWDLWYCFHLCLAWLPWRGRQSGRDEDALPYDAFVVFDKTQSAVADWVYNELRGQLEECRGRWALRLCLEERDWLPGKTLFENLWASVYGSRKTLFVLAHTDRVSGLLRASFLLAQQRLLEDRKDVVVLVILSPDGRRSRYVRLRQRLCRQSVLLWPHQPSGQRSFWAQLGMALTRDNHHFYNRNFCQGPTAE
Outline: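 Cells were pre-incubated 4 h, then co-treated 16 h at 37 °C with compound (10 doses, 0.5–10000 nM final) plus R848 (0.8 µM for TLR7, 3 µM for TLR8) or ODN2006 (1 µM, TLR9). Reporter OD620 gave inhibition relative to DMSO blank and agonist-only controls; IC50 came from curve fitting.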

`FC(F)(F)c1ccc(N2C[C@]3(c4nnc(C5CCN(CC6CC6)CC5)o4)C[C@]3(C(F)(F)F)C2)c2cccnc12` [Compound 76, 2-(1-(cyclopropylmethyl)piperidin-4-yl)-5-((1S,5R)-5-(trifluoromethyl)-3-(8-(trifluoromethyl)quinolin-5-yl)-3-azabicyclo[3.1.0]hexan-1-yl)-1,3,4-oxadiazole] and `NC(=O)CN1CCC(c2nnc([C@]34CN(c5ccc(C(F)(F)F)c6ncccc56)C[C@@]3(C(F)(F)F)C4)o2)CC1` [Compound 77, 2-(4-(5-((1S,5R)-5-(trifluoromethyl)-3-(8-(trifluoromethyl)quinolin-5-yl)-3-azabicyclo[3.1.0]hexan-1-yl)-1,3,4-oxadiazol-2-yl)piperidin-1-yl)acetamide] cannot be ordered by IC50: greater than 1000 nM for the first, greater than 10000 nM for the second.

`CN1[C@@H]2CC[C@H]1C[C@H](c1nnc([C@]34CN(c5ccc(C(F)(F)F)c6ncccc56)C[C@@]3(C(F)(F)F)C4)o1)C2` [Compound 79, 2-((1R,3S,5S)-8-methyl-8-azabicyclo[3.2.1]octan-3-yl)-5-((1S,5R)-5-(trifluoromethyl)-3-(8-(trifluoromethyl)quinolin-5-yl)-3-azabicyclo[3.1.0]hexan-1-yl)-1,3,4-oxadiazole] and `CN1CCC(Oc2nnc([C@]34CN(c5ccc(C(F)(F)F)c6ncccc56)C[C@@]3(C(F)(F)F)C4)o2)CC1` [Compound 92, 2-((1-methylpiperidin-4-yl)oxy)-5-((1S,5R)-5-(trifluoromethyl)-3-(8-(trifluoromethyl)quinolin-5-yl)-3-azabicyclo[3.1.0]hexan-1-yl)-1,3,4-oxadiazole] cannot be ordered by IC50: greater than 1000 nM for the first, greater than 1000 nM for the second.

`N#Cc1ccc(N2C[C@]3(c4nnc(C5CCNCC5)o4)C[C@]3(C(F)(F)F)C2)c2c(F)cnn12` [Compound 80, 3-fluoro-4-((1S,5R)-1-(5-(piperidin-4-yl)-1,3,4-oxadiazol-2-yl)-5-(trifluoromethyl)-3-azabicyclo[3.1.0]hexan-3-yl)pyrazolo[1,5-a]pyridine-7-carbonitrile] and `CN1CCC(c2nnc([C@]34CN(c5ccc(C#N)n6ncc(Br)c56)C[C@@]3(C(F)(F)F)C4)o2)CC1` [Compound 83, 3-bromo-4-((1S,5R)-1-(5-(1-methylpiperidin-4-yl)-1,3,4-oxadiazol-2-yl)-5-(trifluoromethyl)-3-azabicyclo[3.1.0]hexan-3-yl)pyrazolo[1,5-a]pyridine-7-carbonitrile] cannot be ordered by IC50: greater than 1000 nM for the first, greater than 1000 nM for the second.

`NC12CCC(c3nnc([C@]45CN(c6ccc(C(F)(F)F)c7ncccc67)C[C@@]4(C(F)(F)F)C5)o3)(CC1)CC2` [Compound 81, 4-(5-((1S,5R)-5-(trifluoromethyl)-3-(8-(trifluoromethyl)quinolin-5-yl)-3-azabicyclo[3.1.0]hexan-1-yl)-1,3,4-oxadiazol-2-yl)bicyclo[2.2.2]octan-1-amine] and `CN1CCC(O)(c2nnc([C@]34CN(c5ccc(C(F)(F)F)c6ncccc56)C[C@@]3(C(F)(F)F)C4)o2)CC1` [Compound 94, 1-methyl-4-(5-((1S,5R)-5-(trifluoromethyl)-3-(8-(trifluoromethyl)quinolin-5-yl)-3-azabicyclo[3.1.0]hexan-1-yl)-1,3,4-oxadiazol-2-yl)piperidin-4-ol] cannot be ordered by IC50: greater than 1000 nM for the first, greater than 1000 nM for the second.

`CN1CCC(c2nnc([C@]34CN(c5ccc(C#N)n6ncc(Cl)c56)C[C@@]3(C(F)(F)F)C4)o2)CC1` [Compound 84, 3-chloro-4-((1S,5R)-1-(5-(1-methylpiperidin-4-yl)-1,3,4-oxadiazol-2-yl)-5-(trifluoromethyl)-3-azabicyclo[3.1.0]hexan-3-yl)pyrazolo[1,5-a]pyridine-7-carbonitrile] and `CN1CCC(c2nnc([C@]34CN(c5c(Br)cc(C#N)n6ncc(Br)c56)C[C@@]3(C(F)(F)F)C4)o2)CC1` [Compound 85, 3,5-dibromo-4-((1S,5R)-1-(5-(1-methylpiperidin-4-yl)-1,3,4-oxadiazol-2-yl)-5-(trifluoromethyl)-3-azabicyclo[3.1.0]hexan-3-yl)pyrazolo[1,5-a]pyridine-7-carbonitrile] cannot be ordered by IC50: greater than 1000 nM for the first, greater than 1000 nM for the second.

`CN1CCC(c2nnc([C@]34CN(c5c(Br)cc(C#N)n6nccc56)C[C@@]3(C(F)(F)F)C4)o2)CC1` [Compound 86, 5-bromo-4-((1S,5R)-1-(5-(1-methylpiperidin-4-yl)-1,3,4-oxadiazol-2-yl)-5-(trifluoromethyl)-3-azabicyclo[3.1.0]hexan-3-yl)pyrazolo[1,5-a]pyridine-7-carbonitrile] and `CN1CCC(c2nnc([C@]34CN(c5ccc(C#N)c6ncnn56)C[C@@]3(C(F)(F)F)C4)o2)CC1` [Compound 91, 5-((1S,5R)-1-(5-(1-methylpiperidin-4-yl)-1,3,4-oxadiazol-2-yl)-5-(trifluoromethyl)-3-azabicyclo[3.1.0]hexan-3-yl)-[1,2,4]triazolo[1,5-a]pyridine-8-carbonitrile] cannot be ordered by IC50: greater than 1000 nM for the first, greater than 10000 nM for the second.

`CN1CCC(c2nnc([C@]34CN(c5ccc(C(F)(F)F)n6nccc56)C[C@@]3(C(F)(F)F)C4)o2)CC1` [Compound 87, 2-(1-methylpiperidin-4-yl)-5-((1S,5R)-5-(trifluoromethyl)-3-(7-(trifluoromethyl)pyrazolo[1,5-a]pyridin-4-yl)-3-azabicyclo[3.1.0]hexan-1-yl)-1,3,4-oxadiazole] and `CN1CCC(F)(c2nnc([C@]34CN(c5ccc(C#N)n6nccc56)C[C@@]3(C(F)(F)F)C4)o2)CC1` [Compound 90, 4-((1S,5R)-1-(5-(4-fluoro-1-methylpiperidin-4-yl)-1,3,4-oxadiazol-2-yl)-5-(trifluoromethyl)-3-azabicyclo[3.1.0]hexan-3-yl)pyrazolo[1,5-a]pyridine-7-carbonitrile] cannot be ordered by IC50: greater than 1000 nM for the first, greater than 1000 nM for the second.

`CN1CCC(Oc2nnc([C@]34CN(c5ccc(OC(F)(F)F)c6ncccc56)C[C@@]3(C(F)(F)F)C4)o2)CC1` [Compound 93, 2-((1-methylpiperidin-4-yl)oxy)-5-((1S,5R)-5-(trifluoromethyl)-3-(8-(trifluoromethoxy)quinolin-5-yl)-3-azabicyclo[3.1.0]hexan-1-yl)-1,3,4-oxadiazole] and `FC(F)(F)Oc1ccc(N2C[C@]3(c4nnc(C5(F)CCNCC5)o4)C[C@]3(C(F)(F)F)C2)c2cccnc12` [Compound 96, 2-(4-fluoropiperidin-4-yl)-5-((1S,5R)-3-(8-(trifluoromethoxy)quinolin-5-yl)-5-(trifluoromethyl)-3-azabicyclo[3.1.0]hexan-1-yl)-1,3,4-oxadiazole] cannot be ordered by IC50: greater than 10000 nM for the first, greater than 1000 nM for the second.

For `CN1CC(Cc2nnc([C@]34CN(c5ccc(C(F)(F)F)c6ncccc56)C[C@@]3(C(F)(F)F)C4)o2)C1` [Compound 95, 2-((1-methylazetidin-3-yl)methyl)-5-((1S,5R)-5-(trifluoromethyl)-3-(8-(trifluoromethyl)quinolin-5-yl)-3-azabicyclo[3.1.0]hexan-1-yl)-1,3,4-oxadiazole], the IC50 was greater than 1000 nM.
